Measured values taken from patent US10125134B2 (Mirati Therapeutics, Inc., priority 2016, dated 2018).
pIC50: −log10 of the molar value. Read-outs that look alike come from different tables or passages of the source.

What was measured:
[1] = tested on: NCI-H358 cells (express KRas G12C), Phospho-ERK; experiment: Cellular inhibition of KRas G12C: Phospho-ERK in NCI-H358 cells; assay type: cell-based; details: Homo sapiens, pERK(Thr202/Tyr204) normalized with GAPDH, NCI-H358 cells, 3 hours, read-out: IC50
Procedure, shortened: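 IC50 derived by 4-parameter fit of GAPDH-normalized pERK(Thr202/Tyr204) signal, as percent of DMSO control. Signal came from in-cell immunodetection with infrared secondaries after 3 h compound exposure of KRas G12C NCI-H358 cells at 0.5% DMSO.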

KRas G12C = KRas G12C (Homo sapiens, UniProt P01116, C118S/C51S/C80L/G12C); experiment: KRas G12C Modification Assay (LCMS detection of covalent adduct); assay type: binding; details: normalized percent of control; tested at 5 μM concentration for 3 hours
Procedure, shortened: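 Cys-light KRas G12C mutant protein incubated with compound in K-Ras assay buffer, reactions quenched at set time points with 25 mM acetic acid and analysed by intact-protein LC/MS on a C-3 column. Deconvoluted mass heights expressed as percent of control (POC) relative to compound-free protein.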

Structure (SMILES) | pIC50 [1] | POC (KRas G12C) | pIC50 ([1]; NCI-H358, 3 h)
C=CC(=O)N1CCN(c2nc(OCCCN3CCOCC3)nc3c2CCN(c2cc(O)cc4cccnc24)C3)CC1 [Example 205, 1-(4-(7-(6-hydroxyquinolin-8-yl)-2-(3-morpholinopropoxy)-5,6,7,8-tetrahydropyrido[3,4-d]pyrimidin-4-yl)piperazin-1-yl)prop-2-en-1-one] | < 6.00 | C (“C”>50% POC) | –
C=CC(=O)N1CCN(c2nc(OCCCN3CC4CC4C3)nc3c2CCN(c2cc(O)cc4ccccc24)C3)CC1 (centres unmarked) [Example 206, 1-(4-(2-(3-(3-azabicyclo[3.1.0]hexan-3-yl)propoxy)-7-(3-hydroxynaphthalen-1-yl)-5,6,7,8-tetrahydropyrido[3,4-d]pyrimidin-4-yl)piperazin-1-yl)prop-2-en-1-one] | 6.00 to 10.00 | C (“C”>50% POC) | –
C=CC(=O)N1CCN(c2nc(OCCN3CCC[C@@H](F)C3)nc3c2CCN(c2cc(O)cc4ccccc24)C3)CC1 [Example 207, (R)-1-(4-(2-(2-(3-fluoropiperidin-1-yl)ethoxy)-7-(3-hydroxynaphthalen-1-yl)-5,6,7,8-tetrahydropyrido[3,4-d]pyrimidin-4-yl)piperazin-1-yl)prop-2-en-1-one] | < 6.00 | C (“C”>50% POC) | –
C=CC(=O)N1CCN(c2nc(OCCCN3C[C@@H](F)[C@@H](F)C3)nc3c2CCN(c2cc(O)cc4ccccc24)C3)CC1 [Example 208, 1-(4-(2-(3-((3R,4S)-3,4-difluoropyrrolidin-1-yl)propoxy)-7-(3-hydroxynaphthalen-1-yl)-5,6,7,8-tetrahydropyrido[3,4-d]pyrimidin-4-yl)piperazin-1-yl)prop-2-en-1-one] | < 6.00 | C (“C”>50% POC) | –
C=CC(=O)N1CCN(c2nc(OCCCN3CCOCC3)nc3c2CCN(c2c(C)ccc4[nH]ccc24)C3)CC1 [Example 209, 1-(4-(7-(5-methyl-1H-indol-4-yl)-2-(3-morpholinopropoxy)-5,6,7,8-tetrahydropyrido[3,4-d]pyrimidin-4-yl)piperazin-1-yl)prop-2-en-1-one] | < 6.00 | C (“C”>50% POC) | –
C=CC(=O)N1CCN(c2nc(OC[C@@H]3CCCN3C)nc3c2CCN(c2ccccc2C(F)(F)F)C3)CC1CC#N (stereo partly drawn) [Example 210, 2-(1-acryloyl-4-(2-(((S)-1-methylpyrrolidin-2-yl)methoxy)-7-(2-(trifluoromethyl)phenyl)-5,6,7,8-tetrahydropyrido[3,4-d]pyrimidin-4-yl)piperazin-2-yl)acetonitrile] | 6.00 to 10.00 | C (“C”>50% POC) | –
C=CC(=O)N1CCN(c2nc(OC[C@@H]3CCCN3C)nc3c2CCN(c2ccccc2OC(F)(F)F)C3)CC1CC#N (stereo partly drawn) [Example 211, 2-(1-acryloyl-4-(2-(((S)-1-methylpyrrolidin-2-yl)methoxy)-7-(2-(trifluoromethoxy)phenyl)-5,6,7,8-tetrahydropyrido[3,4-d]pyrimidin-4-yl)piperazin-2-yl)acetonitrile] | – | C (“C”>50% POC) | 6.00 to 10.00
C=CC(=O)N1CCN(c2nc(OC[C@@H]3CCCN3C)nc3c2CCN(c2cnccc2C(F)(F)F)C3)CC1CC#N (stereo partly drawn) [Example 212, 2-(1-acryloyl-4-(2-(((S)-1-methylpyrrolidin-2-yl)methoxy)-7-(4-(trifluoromethyl)pyridin-3-yl)-5,6,7,8-tetrahydropyrido[3,4-d]pyrimidin-4-yl)piperazin-2-yl)acetonitrile] | – | C (“C”>50% POC) | 6.00 to 10.00
C=CC(=O)N1CCN(c2nc(OCCCN3CCOCC3)nc3c2CCN(c2cc(O)cc(C)c2C)C3)CC1 [Example 213, 1-(4-(7-(5-hydroxy-2,3-dimethylphenyl)-2-(3-morpholinopropoxy)-5,6,7,8-tetrahydropyrido[3,4-d]pyrimidin-4-yl)piperazin-1-yl)prop-2-en-1-one] | < 6.00 | C (“C”>50% POC) | –
C=CC(=O)N1CCN(c2nc(OCCCN3CCOCC3)nc3c2CCN(c2cc(O)ccc2SC(F)(F)F)C3)CC1 [Example 214, 1-(4-(7-(5-hydroxy-2-((trifluoromethyl)thio)phenyl)-2-(3-morpholinopropoxy)-5,6,7,8-tetrahydropyrido[3,4-d]pyrimidin-4-yl)piperazin-1-yl)prop-2-en-1-one] | < 6.00 | C (“C”>50% POC) | –
C=CC(=O)N1CCN(c2nc(OC(CO)CN3CCOCC3)nc3c2CCN(c2cc(O)cc4ccccc24)C3)CC1 (centres unmarked) [Example 217, 1-(4-(2-((1-hydroxy-3-morpholinopropan-2-yl)oxy)-7-(3-hydroxynaphthalen-1-yl)-5,6,7,8-tetrahydropyrido[3,4-d]pyrimidin-4-yl)piperazin-1-yl)prop-2-en-1-one] | – | C (“C”>50% POC) | < 6.00
C=CC(=O)N1CCN(c2nc(OC[C@@H]3C[C@@H](O)CN3C)nc3c2CCN(c2cccc4ccccc24)C3)CC1CC#N (stereo partly drawn) [Example 218, 2-(1-acryloyl-4-(2-(((2S,4R)-4-hydroxy-1-methylpyrrolidin-2-yl)methoxy)-7-(naphthalen-1-yl)-5,6,7,8-tetrahydropyrido[3,4-d]pyrimidin-4-yl)piperazin-2-yl)acetonitrile] | – | C (“C”>50% POC) | 6.00 to 10.00
C=CC(=O)N1CCN(c2nc(OCC3CN(C)CCN3C)nc3c2CCN(c2cc(O)cc4ccccc24)C3)CC1 (centres unmarked) [Example 219, 1-(4-(2-((1,4-dimethylpiperazin-2-yl)methoxy)-7-(3-hydroxynaphthalen-1-yl)-5,6,7,8-tetrahydropyrido[3,4-d]pyrimidin-4-yl)piperazin-1-yl)prop-2-en-1-one] | – | C (“C”>50% POC) | < 6.00
C=CC(=O)N1CCN(c2nc(OC[C@@H]3C[C@@H](F)CN3C)nc3c2CCN(c2cccc4ccccc24)C3)CC1CC#N (stereo partly drawn) [Example 220, 2-(1-acryloyl-4-(2-(((2 S,4R)-4-fluoro-1-methylpyrrolidin-2-yl)methoxy)-7-(naphthalen-1-yl)-5,6,7,8-tetrahydropyrido[3,4-d]pyrimidin-4-yl)piperazin-2-yl)acetonitrile] | 6.00 to 10.00 | C (“C”>50% POC) | –
C=CC(=O)N1CCN(c2nc(OC[C@@H]3C[C@H](F)CN3C)nc3c2CCN(c2cccc4ccccc24)C3)CC1CC#N (stereo partly drawn) [Example 221, 2-(1-acryloyl-4-(2-(((2S,4S)-4-fluoro-1-methylpyrrolidin-2-yl)methoxy)-7-(naphthalen-1-yl)-5,6,7,8-tetrahydropyrido[3,4-d]pyrimidin-4-yl)piperazin-2-yl)acetonitrile] | – | C (“C”>50% POC) | 6.00 to 10.00
C=CC(=O)N1CCN(c2nc(OC[C@@H]3C[C@H](OC)CN3C)nc3c2CCN(c2cccc4ccccc24)C3)CC1CC#N (stereo partly drawn) [Example 222, 2-(1-acryloyl-4-(2-(((2S,4S)-4-methoxy-1-methylpyrrolidin-2-yl)methoxy)-7-(naphthalen-1-yl)-5,6,7,8-tetrahydropyrido[3,4-d]pyrimidin-4-yl)piperazin-2-yl)acetonitrile] | – | C (“C”>50% POC) | 6.00 to 10.00
C=CC(=O)N1CCN(c2nc(OC[C@@H]3CN(C)CCN3)nc3c2CCN(c2cccc4ccccc24)C3)CC1CC#N (stereo partly drawn) [Example 223, 2-(1-acryloyl-4-(2-(((S)-4-methylpiperazin-2-yl)methoxy)-7-(naphthalen-1-yl)-5,6,7,8-tetrahydropyrido[3,4-d]pyrimidin-4-yl)piperazin-2-yl)acetonitrile] | – | C (“C”>50% POC) | 6.00 to 10.00
C=CC(=O)N1CCN(c2nc(OC[C@H]3CN(C)CCN3)nc3c2CCN(c2cccc4ccccc24)C3)CC1CC#N (stereo partly drawn) [Example 224, 2-(1-acryloyl-4-(2-(((R)-4-methylpiperazin-2-yl)methoxy)-7-(naphthalen-1-yl)-5,6,7,8-tetrahydropyrido[3,4-d]pyrimidin-4-yl)piperazin-2-yl)acetonitrile] | – | C (“C”>50% POC) | 6.00 to 10.00
C=CC(=O)N1CCN(c2nc(OC[C@@H]3CCCN3C)nc3c2CCN(c2cc(F)ccc2OC(F)(F)F)C3)CC1CC#N (stereo partly drawn) [Example 225, 2-(1-acryloyl-4-(7-(5-fluoro-2-(trifluoromethoxy)phenyl)-2-(((S)-1-methylpyrrolidin-2-yl)methoxy)-5,6,7,8-tetrahydropyrido[3,4-d]pyrimidin-4-yl)piperazin-2-yl)acetonitrile] | – | C (“C”>50% POC) | 6.00 to 10.00
C=CC(=O)N1CCN(c2nc(OC[C@@H]3CCCN3C)nc3c2CCN(c2cccnc2C(F)(F)F)C3)CC1CC#N (stereo partly drawn) [Example 226, 2-(1-acryloyl-4-(2-(((S)-1-methylpyrrolidin-2-yl)methoxy)-7-(2-(trifluoromethyl)pyridin-3-yl)-5,6,7,8-tetrahydropyrido[3,4-d]pyrimidin-4-yl)piperazin-2-yl)acetonitrile] | – | C (“C”>50% POC) | 6.00 to 10.00
C=CC(=O)N1CCN(c2nc(OC[C@@H]3CCCN3C)nc3c2CCN(c2ccccc2F)C3)CC1CC#N (stereo partly drawn) [Example 227, 2-(1-acryloyl-4-(7-(2-fluorophenyl)-2-(((S)-1-methylpyrrolidin-2-yl)methoxy)-5,6,7,8-tetrahydropyrido[3,4-d]pyrimidin-4-yl)piperazin-2-yl)acetonitrile] | – | A (“A”≤25% POC) | 6.00 to 10.00
C=CC(=O)N1CCN(c2nc(OC[C@@H]3CCCN3C)nc3c2CCN(c2cccc(C)c2C)C3)CC1CC#N (stereo partly drawn) [Example 228, 2-(1-acryloyl-4-(7-(2,3-dimethylphenyl)-2-(((S)-1-methylpyrrolidin-2-yl)methoxy)-5,6,7,8-tetrahydropyrido[3,4-d]pyrimidin-4-yl)piperazin-2-yl)acetonitrile] | – | C (“C”>50% POC) | 6.00 to 10.00
